US5238922A, “Inhibitors of farnesyl protein transferase” (Merck & Co., Inc., priority 1991, dated 1993)

Assays:
[1] = biological target: T1, Farnesyl-protein transferase (FTase) from bovine brain (Bos taurus, UniProt P29702+P49355); assay: In vitro inhibition of Ras Farnesyl Transferase; type: biochemical; conditions: partially purified bovine brain FTase; Ras-CVLS 3.5 μM, 0.25 μM [3H]FPP; read-out: IC50 (concentration of compound which gives 50% inhibition of FTase)
T1 construct: incubated with this partially purified enzyme preparation; from tissue; host or cells: bovine brain
Procedure: Farnesyl-protein transferase (FTase) from bovine brain was chromatographed on DEAE-Sephacel (Pharmacia, 0-0.8M NaCl gradient elution), N-octyl agarose (Sigma, 0-0.6M NaCl gradient elution),, and a mono Q HPLC column (Pharmacia, 0-0.3M NaCl gradient). Ras-CVLS at 3.5 μM, 0.25 μM [^3 H]FPP, and the indicated compounds were incubated with this partially purified enzyme preparation. The FTase data presented below is a measurement of the ability of the test compound to inhibit Ras farnesylation in vitro.

[2] = test system: Ras farnesylation in the v-ras cell line (viral Ha-ras p21); assay: In vivo ras farnesylation assay (v-ras cell line); type: cell-based
Procedure: The cell line used in this assay was the v-ras line, which expressed viral Ha-ras p21. The assay was performed essentially as described in DeClue, J. E. et. al., Cancer Research 51, 712-717, (1991). Cells in 10 cm dishes at 50-75% confluency were treated with the test compound (final concentration of solvent, methanol or dimethyl sulfoxide, was 0.1%). After 4 hours at 37° C., the cells were labelled in 3 ml methionine-free DMEM supplemented with 10% regular DMEM, 2% fetal bovine serum and 400 μCi[^35 S]methionine (1000 Ci/mmol). After an additional 20 hours, the cells were lysed in 1 ml lysis buffer (1% NP40/20 mM HEPES, pH 7.5/5 mM MgCl2 /1 mM DTT/10 μg/ml aprotinen/2 μg/ml leupeptin/2 μg/ml antipain/0.5 mM PMSF) and the lysates cleared by centrifugation at 100,000×g for 45 min. Aliqouts of lysates containing equal numbers of acid-precipitable counts were bought to 1 ml with IP buffer (lysis buffer lacking DTT) and immunoprecipitated with the ras-specific monoclonal antibody Y13-259 (Furth, M. E. et. al., J. Virol. 43, 294-304, (1982)). Following a 2 hour antibody incubation at 4° C., 200 μl of a 25% suspension of protein A-Sepharose coated with rabbit anti rat IgG was added for 45 min. […]

Structure (SMILES) | IC50 [1] | Inhibition of Ras Farnesylation in the v-ras cell line ([2]; at 100 μm test concentration) | Inhibition of Ras Farnesylation in the v-ras cell line ([2]; at 10 μm test concentration)
CC[C@H](C)[C@@H](CN[C@@H](Cc1ccccc1)C(=O)N[C@@H](CCSC)C(=O)O)NC[C@@H](N)CS [N-[2(S)-(2(R)-amino-3-mercaptopropylamino)-3(S)-methylpentyl]phenylalanyl-methionine] | 4.7 nM | 30% | –
CCOC(=O)[C@H](CCSC)NC(=O)[C@H](Cc1ccccc1)NC(=O)[C@@H](NC[C@@H](N)CS)[C@@H](C)CC [N-(2(R)-amino-3-mercaptopropyl)isoleucyl-phenylalanyl-methionine ethyl ester] | 2000 nM | – | 10%
CSCC[C@H](NC(=O)[C@H](Cc1ccccc1)NC[C@@H](NC(=O)[C@@H](N)CS)C(C)C)C(=O)O [N-(3-methyl-2(S)-(cysteinylamino)but-1-yl)phenylalanyl-methionine] | 7 nM | – | –
